Measurements from US11111245B2, “Derivatives of N-cycloalkyl/heterocycloalkyl-4-(imidazo[1,2-a]pyridine)pyrimidin-2-amine as therapeutic agents” (Aucentra Therapeutics Pty Ltd, priority 2017, dated 2021).

Tests used:
[1] = target: CDK9/T1 (Homo sapiens, UniProt P50750); experiment: ADP Glo Kinase assay CDK9/T1; format: biochemical; settings: CDK9T1; read-out: CDK inhibition, Ki (μM) CDK9T1
How it was run: (§1)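 ADP Glo luminescence, in-house: CDK4/D1, CDK6/D3 on RB-CTF substrate (Tris pH 7.5, MgCl2, DTT, BSA); CDK9/T1 on RBER-IRStide. Reaction 40 min, 37° C after ATP addition. 10-point 1:3 series, 10 μM to 0.5 nM. IC50 by 4-parameter logistic; Ki derived using ATP Km.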

[2] = target: CDK6/D3 (Homo sapiens, UniProt Q00534); experiment: ADP Glo Kinase assay CDK6/D3; format: biochemical; settings: CDK6D3; compound at 10 μM; read-out: residual activity (%) at 10 μM CDK6D3
How it was run: as §1

[3] = system: leukemia cell lines; experiment: Resazurin cell viability assay on leukemia cell lines (72 h growth inhibition, GI50); format: cell-based; settings: Homo sapiens, MV4-11 cells
How it was run: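 Cells were exposed to compound, then viability was read by MTT (solid tumour lines) or resazurin reduction (leukaemia lines). Non-linear regression gave the concentration inhibiting 50% of cell growth.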

[4] = target: CDK4/D1 (Homo sapiens, UniProt P11802); experiment: ADP Glo Kinase assay CDK4/D1; format: biochemical; settings: CDK4D1; for remaining activity at 10 µM: compound at 10 μM, read-out: residual activity (%) at 10 μM CDK4D1
How it was run: as §1

[5] = target: T1, CDKs and other kinases (Homo sapiens, UniProt P50613); experiment: Radiometric kinase assay (Eurofins Pharma Discovery or Reaction Biology Corporation Kinase Profiler); format: biochemical; settings: CDK7H; for Ki: read-out: CDK inhibition, Ki (μM) CDK7H; for remaining activity at 10 µM: compound at 10 μM, read-out: residual activity (%) at 10 μM CDK7H
T1 construct: other: CDK7H; residual activity (%) at 10 μM CDK7H; compound at 10 μM
How it was run: (§2)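 Other CDKs and further kinases were profiled externally by radiometric assay. In-house ADP Glo assays covered CDK4/D1 and CDK6/D3 (RB-CTF substrate, pH 7.5 Tris buffer with MgCl2, DTT, BSA) and CDK9/T1 (RBER-IRStide substrate), 40 min at 37° C.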

[6] = target: T2, CDKs and other kinases (Homo sapiens, UniProt P24941); experiment: as above; format: biochemical; settings: CDK2A; for Ki: read-out: CDK inhibition, Ki (μM) CDK2A; for remaining activity at 10 µM: compound at 10 μM, read-out: residual activity (%) at 10 μM CDK2A
T2 construct: other: CDK2A; residual activity (%) at 10 μM CDK2A; compound at 10 μM
How it was run: as §2

[7] = target: T3, CDKs and other kinases (Homo sapiens, UniProt P06493); experiment: as above; format: biochemical; settings: CDK1B; for Ki: read-out: CDK inhibition, Ki (μM) CDK1B; for remaining activity at 10 µM: compound at 10 μM, read-out: residual activity (%) at 10 μM CDK1B
T3 construct: other: CDK1B; residual activity (%) at 10 μM CDK1B; compound at 10 μM
How it was run: as §2

Chain of CDK6/D3 (Q00534 whole entry): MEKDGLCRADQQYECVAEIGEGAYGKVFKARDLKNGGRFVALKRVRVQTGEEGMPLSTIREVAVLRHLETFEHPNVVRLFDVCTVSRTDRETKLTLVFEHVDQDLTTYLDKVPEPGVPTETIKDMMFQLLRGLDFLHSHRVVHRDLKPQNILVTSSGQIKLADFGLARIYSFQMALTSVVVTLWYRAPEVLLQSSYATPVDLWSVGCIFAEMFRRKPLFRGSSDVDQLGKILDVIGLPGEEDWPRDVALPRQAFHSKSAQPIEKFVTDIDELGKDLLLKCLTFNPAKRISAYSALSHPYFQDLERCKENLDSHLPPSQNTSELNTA
Chain of CDK6/D3 (P30281 whole entry partner): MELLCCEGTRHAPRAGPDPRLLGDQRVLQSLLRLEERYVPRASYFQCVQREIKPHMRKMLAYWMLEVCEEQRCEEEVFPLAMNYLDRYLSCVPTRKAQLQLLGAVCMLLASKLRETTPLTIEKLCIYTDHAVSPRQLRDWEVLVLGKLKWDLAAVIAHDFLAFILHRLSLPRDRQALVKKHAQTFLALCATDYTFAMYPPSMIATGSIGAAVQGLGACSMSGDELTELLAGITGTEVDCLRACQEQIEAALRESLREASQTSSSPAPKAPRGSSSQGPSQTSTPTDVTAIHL
T3 sequence (P06493 whole entry): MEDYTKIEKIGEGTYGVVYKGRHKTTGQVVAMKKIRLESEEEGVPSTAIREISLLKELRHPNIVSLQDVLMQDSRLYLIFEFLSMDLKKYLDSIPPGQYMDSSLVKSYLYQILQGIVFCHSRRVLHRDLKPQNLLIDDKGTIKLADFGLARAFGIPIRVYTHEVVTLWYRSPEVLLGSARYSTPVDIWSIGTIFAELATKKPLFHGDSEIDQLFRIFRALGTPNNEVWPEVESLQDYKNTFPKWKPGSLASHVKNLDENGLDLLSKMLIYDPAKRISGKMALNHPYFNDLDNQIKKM
Chain of CDK9/T1 (P50750 whole entry): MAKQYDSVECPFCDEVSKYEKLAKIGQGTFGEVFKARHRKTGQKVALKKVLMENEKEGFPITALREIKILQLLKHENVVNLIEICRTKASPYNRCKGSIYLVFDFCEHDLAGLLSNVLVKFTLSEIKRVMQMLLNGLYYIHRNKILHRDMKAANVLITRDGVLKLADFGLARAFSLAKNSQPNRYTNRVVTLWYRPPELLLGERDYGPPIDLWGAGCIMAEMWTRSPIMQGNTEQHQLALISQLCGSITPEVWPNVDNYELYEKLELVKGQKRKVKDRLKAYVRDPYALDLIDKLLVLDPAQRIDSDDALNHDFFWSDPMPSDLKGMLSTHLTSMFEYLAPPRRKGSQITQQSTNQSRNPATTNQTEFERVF
Chain of CDK9/T1 (O60563 whole entry partner): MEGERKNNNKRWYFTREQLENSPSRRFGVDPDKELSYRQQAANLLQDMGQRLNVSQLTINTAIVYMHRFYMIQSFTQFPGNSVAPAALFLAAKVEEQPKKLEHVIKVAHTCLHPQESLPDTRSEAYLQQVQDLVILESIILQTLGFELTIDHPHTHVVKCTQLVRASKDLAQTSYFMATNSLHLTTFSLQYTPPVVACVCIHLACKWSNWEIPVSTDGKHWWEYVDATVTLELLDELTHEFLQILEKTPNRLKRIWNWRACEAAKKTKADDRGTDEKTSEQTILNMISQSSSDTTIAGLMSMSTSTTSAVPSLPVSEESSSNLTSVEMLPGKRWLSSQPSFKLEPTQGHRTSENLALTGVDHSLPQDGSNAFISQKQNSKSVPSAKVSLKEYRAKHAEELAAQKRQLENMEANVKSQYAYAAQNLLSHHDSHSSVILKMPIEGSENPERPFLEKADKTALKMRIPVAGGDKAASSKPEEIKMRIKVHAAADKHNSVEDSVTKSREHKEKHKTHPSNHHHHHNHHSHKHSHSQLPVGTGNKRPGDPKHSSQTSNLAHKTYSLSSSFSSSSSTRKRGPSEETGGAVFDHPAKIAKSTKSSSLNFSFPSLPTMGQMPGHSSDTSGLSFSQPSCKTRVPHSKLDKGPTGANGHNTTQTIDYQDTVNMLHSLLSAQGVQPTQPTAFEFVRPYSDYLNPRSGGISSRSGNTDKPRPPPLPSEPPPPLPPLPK
T1 sequence (P50613 whole entry): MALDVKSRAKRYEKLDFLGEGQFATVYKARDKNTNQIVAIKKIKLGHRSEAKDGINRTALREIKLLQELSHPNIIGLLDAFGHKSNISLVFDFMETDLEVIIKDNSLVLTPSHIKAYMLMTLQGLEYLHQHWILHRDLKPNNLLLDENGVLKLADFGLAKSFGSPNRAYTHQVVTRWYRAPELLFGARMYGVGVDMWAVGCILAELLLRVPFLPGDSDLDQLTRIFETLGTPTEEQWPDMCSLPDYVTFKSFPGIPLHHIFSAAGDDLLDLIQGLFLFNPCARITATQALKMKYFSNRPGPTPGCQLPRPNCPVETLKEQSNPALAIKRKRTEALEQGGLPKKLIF
Chain of CDK4/D1 (P11802 whole entry): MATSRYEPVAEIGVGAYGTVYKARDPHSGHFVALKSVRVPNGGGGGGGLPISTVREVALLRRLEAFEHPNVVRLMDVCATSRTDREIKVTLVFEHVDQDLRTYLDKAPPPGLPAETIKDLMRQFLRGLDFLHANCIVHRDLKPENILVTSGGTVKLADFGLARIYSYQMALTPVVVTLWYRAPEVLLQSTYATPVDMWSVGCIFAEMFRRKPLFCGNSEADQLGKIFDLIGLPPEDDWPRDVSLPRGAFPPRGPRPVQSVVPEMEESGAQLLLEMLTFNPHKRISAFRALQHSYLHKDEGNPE
Chain of CDK4/D1 (P24385 whole entry partner): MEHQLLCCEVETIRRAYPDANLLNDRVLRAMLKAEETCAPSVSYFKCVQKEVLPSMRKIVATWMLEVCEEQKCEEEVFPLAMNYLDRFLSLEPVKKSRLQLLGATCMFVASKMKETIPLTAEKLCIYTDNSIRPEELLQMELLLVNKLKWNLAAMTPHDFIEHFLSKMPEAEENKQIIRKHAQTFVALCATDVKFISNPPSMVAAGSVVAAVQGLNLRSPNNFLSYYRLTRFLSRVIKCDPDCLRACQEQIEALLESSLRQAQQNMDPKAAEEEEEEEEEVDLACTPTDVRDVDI

SMILES	Ki [1] [µM]	remaining activity at 10 µM [2] [%]	GI50 [3] [µM]	remaining activity at 10 µM [4] [%]	Ki [5] [µM]	Ki [6] [µM]	Ki [7] [µM]	remaining activity at 10 µM [5] [%]	remaining activity at 10 µM [6] [%]	remaining activity at 10 µM [7] [%]	Ki ([4]; read-out: CDK inhibition, Ki (μM) CDK4D1) [µM]
N[C@H]1CC[C@H](Nc2ncc(F)c(-c3cnc4ccccn34)n2)CC1 [Compound 1, (1r,4r)-N^1-(5-Fluoro-4-(imidazo[1,2-a]pyridin-3-yl)pyrimidin-2-yl)cyclohexane-1,4-diamine]	0.006	23	0.046 ± 0.005		0.026	0.018	0.077				0.025
Cc1cnc(N[C@H]2CC[C@H](N)CC2)nc1-c1cnc2ccc(C(F)(F)F)cn12 [Compound 9, (1r,4r)-N^1-(5-Methyl-4-(6-(trifluoromethyl)imidazo[1,2-a]pyridin-3-yl)pyrimidin-2-yl)cyclohexane-1,4-diamine]	0.009	58	0.008 ± 0.002	45	0.23	0.08	0.266				
Cc1cnc(N[C@H]2CC[C@H](N)CC2)nc1-c1cnc2ccc(Nc3ccc(OC(F)F)nc3)cn12 [Compound 68, (1r,4r)-N^1-(4-(6-((6-(Difluoromethoxy)pyridin-3-yl)amino)imidazo[1,2-a]pyridin-3-yl)-5-methylpyrimidin-2-yl) cyclohexane-1,4-diamine]	0.033	23	0.127 ± 0.002	37	0.71	0.35	2.18				
N[C@H]1CC[C@H](Nc2ncc(F)c(-c3cnc4ccc(Nc5cccc(F)c5)cn34)n2)CC1 [Compound 25, (1r,4r)-N^1-(5-Fluoro-4-(6-((3-fluorophenyl)amino)imidazo[1,2-a]pyridin-3-yl)pyrimidin-2-yl) cyclohexane-1,4-diamine]	0.003	4	< 0.001	4				1	2	3	

More lines, now with the values ahead:

Ki [1] [µM]	remaining activity at 10 µM [2] [%]	GI50 [3] [µM]	remaining activity at 10 µM [4] [%]	Ki [5] [µM]	Ki [6] [µM]	Ki [7] [µM]	remaining activity at 10 µM [5] [%]	remaining activity at 10 µM [6] [%]	remaining activity at 10 µM [7] [%]	Ki ([4]; read-out: CDK inhibition, Ki (μM) CDK4D1) [µM]	SMILES
0.203	66	0.383 ± 0.119	35	5.19	2.66	6.05					Cc1cnc(N[C@H]2CC[C@H](N)CC2)nc1-c1cnc2ccc(Nc3cccnn3)cn12 [Compound 71, (1r,4r)-N^1-(5-Methyl-4-(6-(pyridazin-3-ylamino)imidazo [1,2-a]pyridin-3-yl)pyrimidin-2-yl)cyclohexane-1,4-diamine]
0.194	85	1.46 ± 0.476	77				57	52	69		Cc1cnc(N[C@H]2CC[C@H](N)CC2)nc1-c1cnc2ccc(NC(=O)c3ccc(F)cc3)cn12 [Compound 72, N-(3-(2-(((1r,4r)-4-Aminocyclohexyl)amino)-5-methylpyrimidin-4-yl)imidazo[1,2-a]pyridin-6-yl)-4-fluorobenzamide]
0.155	73	4.76 ± 1.16	70				57	2	4		Cc1cnc(NC2CCOCC2)nc1-c1cnc2ccc(Nc3cncnc3)cn12 [Compound 104, 3-(5-Methyl-2-((tetrahydro-2H-pyran-4-yl)amino)pyrimidin-4-yl)-N-(pyrimidin-5-yl)imidazo[1,2-a]pyridin-6-amine]
0.198	76	0.646 ± 0.129	76				33	28	59		Cc1cnc(NC2CCCC(N)C2)nc1-c1cnc2ccc(Nc3cccnc3)cn12 (centres unmarked) [Compound 95, N^1-(5-Methyl-4-(6-(pyridin-3-ylamino)imidazo[1,2-a]pyridin-3-yl)pyrimidin-2-yl)cyclohexane-1,3-diamine]
